This is an account of results in PubChem BioAssay AID248 (DTP/NCI, 2004).

Structures are written as SMILES. Several values for one entry are separate records, joined by “and”; a condition that tells them apart may be missing. Identical values can stand only once. Toxic doses and inconclusive results are not listed.

In the assay the test system is L1210 leukemia ip in BDF1 mice, survival T/C. The assay is described as follows: NCI In Vivo Anticancer Drug Screen. Data for tumor model L1210 Leukemia (intraperitoneal) in B6D2F1 (BDF1) mice. The conditions noted are these: endpoint: mean survival time, higher = longer survival. The method in brief: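 Read-out is survival time, reported as the treated-group measurement over the vehicle-control measurement.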

`O=c1cc(CO)[nH]cc1O`: the T/C is 102 % of control (dose: 25.0 mg/kg/injection, schedule: Q01DX Z (ip), vehicle: methylcellulose (MC)); 103 % of control (dose: 50.0 mg/kg/injection, schedule: Q01DX015 (ip), vehicle: carboxymethylcellulose (CMC)); 96 % of control (dose: 50.0 mg/kg/injection, schedule: Q01DX Z (ip), vehicle: methylcellulose (MC)); 115 % of control (dose: 62.5 mg/kg/injection, schedule: Q01DX015 (ip), vehicle: saline); 98 % of control and 112 % of control (dose: 78.0 mg/kg/injection, schedule: Q01DX Z (ip), vehicle: carboxymethylcellulose (CMC)); 96 % of control and 114 % of control (dose: 78.0 mg/kg/injection, schedule: Q01DX Z (ip), vehicle: saline). The T/C by setting is: (dose: 100.0 mg/kg/injection, schedule: Q01DX001 (ip), vehicle: Klucel (hydroxypropylcellulose) (HPC)) 106 % of control; (dose: 100.0 mg/kg/injection, schedule: Q01DX009 (ip), vehicle: Klucel (hydroxypropylcellulose) (HPC)) 110 % of control and 121 % of control; (dose: 100.0 mg/kg/injection, schedule: Q01DX009 (ip), vehicle: saline) 121 % of control; (dose: 100.0 mg/kg/injection, schedule: Q01DX015 (ip), vehicle: carboxymethylcellulose (CMC)) 108 % of control; (dose: 100.0 mg/kg/injection, schedule: Q01DX Z (ip), vehicle: methylcellulose (MC)) 101 % of control; (dose: 100.0 mg/kg/injection, schedule: Q04DX003 (ip), vehicle: Klucel (hydroxypropylcellulose) (HPC)) 110 % of control. In addition, the T/C is 106 % of control (dose: 100.0 mg/kg/injection, schedule: Q04DX003 (ip), vehicle: saline); 104 % of control and 121 % of control (dose: 117.0 mg/kg/injection, schedule: Q01DX Z (ip), vehicle: carboxymethylcellulose (CMC)); 110 % of control (dose: 117.0 mg/kg/injection, schedule: Q01DX Z (ip), vehicle: methylcellulose (MC)); 110 % of control and 120 % of control (dose: 117.0 mg/kg/injection, schedule: Q01DX Z (ip), vehicle: saline); 104 % of control and 106 % of control (dose: 125.0 mg/kg/injection, schedule: Q01DX001 (ip), vehicle: carboxymethylcellulose (CMC)); 113 % of control (dose: 125.0 mg/kg/injection, schedule: Q01DX015 (ip), vehicle: saline). For the same compound, the T/C is 100 % of control (dose: 125.0 mg/kg/injection, schedule: Q## X001 (ip), vehicle: carboxymethylcellulose (CMC)); 109 % of control (dose: 175.0 mg/kg/injection, schedule: Q01DX Z (ip), vehicle: carboxymethylcellulose (CMC)); 96 % of control (dose: 175.0 mg/kg/injection, schedule: Q01DX Z (ip), vehicle: methylcellulose (MC)); 113 % of control (dose: 175.0 mg/kg/injection, schedule: Q01DX Z (ip), vehicle: saline); 121 % of control (dose: 177.0 mg/kg/injection, schedule: Q01DX009 (ip), vehicle: Klucel (hydroxypropylcellulose) (HPC)); 110 % of control (dose: 200.0 mg/kg/injection, schedule: Q01DX001 (ip), vehicle: Klucel (hydroxypropylcellulose) (HPC)). Moreover, the T/C is, setting by setting: (dose: 200.0 mg/kg/injection, schedule: Q01DX009 (ip), vehicle: Klucel (hydroxypropylcellulose) (HPC)) 151 % of control; (dose: 200.0 mg/kg/injection, schedule: Q04DX003 (ip), vehicle: Klucel (hydroxypropylcellulose) (HPC)) 122 % of control; (dose: 200.0 mg/kg/injection, schedule: Q04DX003 (ip), vehicle: saline) 115 % of control; (dose: 250.0 mg/kg/injection, schedule: Q01DX001 (ip), vehicle: carboxymethylcellulose (CMC)) 97 % of control and 101 % of control; (dose: 250.0 mg/kg/injection, schedule: Q01DX015 (ip), vehicle: saline) 159 % of control; (dose: 250.0 mg/kg/injection, schedule: Q## X001 (ip), vehicle: carboxymethylcellulose (CMC)) 106 % of control. The T/C (dose: 263.0 mg/kg/injection, schedule: Q01DX Z (ip), vehicle: carboxymethylcellulose (CMC)) was 124 % of control; the T/C (dose: 263.0 mg/kg/injection, schedule: Q01DX Z (ip), vehicle: methylcellulose (MC)) is 110 % of control; the T/C (dose: 264.0 mg/kg/injection, schedule: Q01DX008 (ip), vehicle: saline) was 106 % of control; the T/C (dose: 264.0 mg/kg/injection, schedule: Q01DX009 (ip), vehicle: saline) was 101 % of control; the T/C (dose: 393.0 mg/kg/injection, schedule: Q01DX Z (ip), vehicle: methylcellulose (MC)) was 116 % of control; the T/C (dose: 400.0 mg/kg/injection, schedule: Q01DX001 (ip), vehicle: Klucel (hydroxypropylcellulose) (HPC)) was 112 % of control. Also, the T/C is 116 % of control (dose: 400.0 mg/kg/injection, schedule: Q01DX008 (ip), vehicle: saline); 156 % of control (dose: 400.0 mg/kg/injection, schedule: Q01DX009 (ip), vehicle: Klucel (hydroxypropylcellulose) (HPC)); 122 % of control (dose: 400.0 mg/kg/injection, schedule: Q04DX003 (ip), vehicle: Klucel (hydroxypropylcellulose) (HPC)); 112 % of control (dose: 400.0 mg/kg/injection, schedule: Q04DX003 (ip), vehicle: saline); 95 % of control and 111 % of control (dose: 500.0 mg/kg/injection, schedule: Q01DX001 (ip), vehicle: carboxymethylcellulose (CMC)); 165 % of control (dose: 500.0 mg/kg/injection, schedule: Q01DX015 (ip), vehicle: saline). In addition, the T/C (dose: 500.0 mg/kg/injection, schedule: Q01DX Z (ip), vehicle: methylcellulose (MC)) was 106 % of control; the T/C (dose: 500.0 mg/kg/injection, schedule: Q## X001 (ip), vehicle: carboxymethylcellulose (CMC)) was 101 % of control; the T/C (dose: 590.0 mg/kg/injection, schedule: Q01DX Z (ip), vehicle: carboxymethylcellulose (CMC)) is 105 % of control; the T/C (dose: 625.0 mg/kg/injection, schedule: Q01DX Z (ip), vehicle: methylcellulose (MC)) is 108 % of control; the T/C (dose: 750.0 mg/kg/injection, schedule: Q01DX Z (ip), vehicle: methylcellulose (MC)) is 120 % of control; the T/C (dose: 1000.0 mg/kg/injection, schedule: Q01DX001 (ip), vehicle: carboxymethylcellulose (CMC)) was 102 % of control and 105 % of control. Moreover, the T/C (dose: 1000.0 mg/kg/injection, schedule: Q## X001 (ip), vehicle: carboxymethylcellulose (CMC)) was 108 % of control.

In the case of `COc1cc(C)c(C(=O)Oc2cc(C)c(C(=O)O)c(O)c2C)c(OC)c1C`, the T/C (dose: 6.25 mg/kg/injection, schedule: Q01DX009 (ip), vehicle: saline) is 95 % of control; the T/C (dose: 12.5 mg/kg/injection, schedule: Q01DX009 (ip), vehicle: saline) was 98 % of control; the T/C (dose: 25.0 mg/kg/injection, schedule: Q01DX009 (ip), vehicle: saline) was 97 % of control and 98 % of control; the T/C (dose: 37.5 mg/kg/injection, schedule: Q01DX Z (ip), vehicle: saline) is 93 % of control; the T/C (dose: 75.0 mg/kg/injection, schedule: Q01DX Z (ip), vehicle: saline) was 98 % of control; the T/C (dose: 100.0 mg/kg/injection, schedule: Q01DX Z (ip), vehicle: saline) is 96 % of control. The T/C by setting is: (dose: 150.0 mg/kg/injection, schedule: Q01DX Z (ip), vehicle: saline) 93 % of control; (dose: 300.0 mg/kg/injection, schedule: Q01DX Z (ip), vehicle: saline) 98 % of control.

On to `Clc1ccccc1/C=N/Nc1nnc(N/N=C/c2ccccc2Cl)c2ccccc12`, for which the T/C reads like this: (dose: 50.0 mg/kg/injection, schedule: Q01DX001 (ip), vehicle: carboxymethylcellulose (CMC)) 95 % of control; (dose: 100.0 mg/kg/injection, schedule: Q01DX001 (ip), vehicle: carboxymethylcellulose (CMC)) 89 % of control; (dose: 200.0 mg/kg/injection, schedule: Q01DX001 (ip), vehicle: carboxymethylcellulose (CMC)) 89 % of control; (dose: 400.0 mg/kg/injection, schedule: Q01DX001 (ip), vehicle: carboxymethylcellulose (CMC)) 89 % of control.

As to `COc1ccc(/C=N\NC(=O)c2ccncc2)cc1`, the T/C is 109 % of control (dose: 50.0 mg/kg/injection, schedule: Q04DX002 (ip), vehicle: Klucel (hydroxypropylcellulose) (HPC)); 113 % of control (dose: 100.0 mg/kg/injection, schedule: Q04DX002 (ip), vehicle: Klucel (hydroxypropylcellulose) (HPC)); 106 % of control (dose: 200.0 mg/kg/injection, schedule: Q04DX002 (ip), vehicle: Klucel (hydroxypropylcellulose) (HPC)); 118 % of control (dose: 400.0 mg/kg/injection, schedule: Q04DX002 (ip), vehicle: Klucel (hydroxypropylcellulose) (HPC)).

In the case of `OC(OC/C(I)=C(/I)COC(O)C(Cl)(Cl)Cl)C(Cl)(Cl)Cl` (stereo not given), the T/C reads like this: (dose: 100.0 mg/kg/injection, schedule: Q01DX009 (ip), vehicle: other) 103 % of control; (dose: 100.0 mg/kg/injection, schedule: Q04DX003 (ip), vehicle: other) 103 % of control; (dose: 200.0 mg/kg/injection, schedule: Q01DX009 (ip), vehicle: other) 92 % of control; (dose: 200.0 mg/kg/injection, schedule: Q04DX003 (ip), vehicle: other) 100 % of control; (dose: 400.0 mg/kg/injection, schedule: Q04DX003 (ip), vehicle: other) 97 % of control.
